Laboratory results: patent US20040254229A1, “Use of glucose uptake enhancer for reducing apoptosis” (SmithKline Beecham p.l.c. and SmithKline Beecham …, priority 1998, published 2004)

Columns and labels:
[1] = system: isolated working hearts from male Wistar rats; test: Isolated working hearts from normal male Wistar rats: ventricular function, zero-flow ischaemia and re-perfusion; set-up: species or system rat
Method: Test Systems: Male Wistar rats (Charles River; St Aubin lès Elbeuf, France), with a body weight ranging from 260 to 280 g were housed on a 12h/12h light-dark cycle with access to water and standard rat chow ad libitum. An acclimatisation period of at least one week was allowed prior to experiment.
(§1) Perfusion of isolated hearts: Rats were anaesthetized using thiopental sodium (50 mg/kg body weight intraperitoneally). Hearts from normoglycaemic and one-month STZ-induced diabetic rats, were quickly removed and immersed in ice-cold buffer to produce an immediate cessation of contractility. The aorta was dissected free and then mounted onto a cannula attached to a perfusion apparatus. Retrograde perfusion of the heart was started for 10 min by the Langendorff method and then switched to perfusion using the working-heart technique. […] The perfusate was not recirculated. Preload was held at a pressure of 15 cm H2O and afterload, as well as coronary perfusion pressure, were kept constant at 80 cm H2O.
(§2) Aortic and coronary flows ([…]) were measured by timed collection. Cardiac output ([…]) was derived from the sum of the aortic and coronary flows. Stroke volume (ml/beat) was derived by dividing cardiac output by heart rate.
(§3) Induction of global ischaemia and re-perfusion: Total ischaemia was initiated by clamping the left atrium and the aortic perfusion tubes and reducing coronary flow to zero for 30 minutes. The hearts were then re-perfused at 37° C. in working heart mode and recovery of ventricular function was followed for 30 minutes.
(§4) Data Handling & Analysis: The data are presented as the mean±SEM. Statistical significance of differences was determined using Student's t-test. Differences with p<0.05 were considered to be statistically significant.

[2] = system: isolated working hearts from STZ-diabetic rats; test: Isolated working hearts from STZ-diabetic male Wistar rats: ventricular function, zero-flow ischaemia and re-perfusion; set-up: species or system rat
Method: A solution of streptozotocin (STZ commercially available) was prepared in citrate buffer (40 mg/ml).
Induction of experimental diabetes: Male Wistar rats weighing between 300 and 320 g were fasted overnight and made diabetic by a single intravenous injection of STZ, 40 mg/kg body weight. The development of diabetes and its persistence were monitored by serial quantitative measurements of glucose in the urine with reagent strips. On the day of the experiment, the severity of diabetes was assessed by measuring glucose concentrations from blood samples collected at the time of heart excision. Only rats with plasma glucose levels exceeding 20 mM were considered diabetic and included in these experiments.
as §1, §2, §3, §4

[3] = baseline ventricular function, normal male Wistar rats, 1 μM in the perfusate pre-ischaemia, mean±SEM
[4] = baseline ventricular function, STZ-diabetic male Wistar rats, 1 μM in the perfusate pre-ischaemia, n = 6, mean±SEM

## CN(CCOc1ccc(CC2SC(=O)NC2=O)cc1)c1ccccn1 (stereo not drawn) [Compound (I), 5-[4-[2-(N-methyl-N-(2-pyridyl)amino)ethoxy]benzyl]thiazolidine-2,4-dione]
[1]; [3]
  Aortic Flow: 34.0 ± 0.7 mL/min
  Cardiac Output: 51 ± 1 mL/min
  Coronary Flow: 16.6 ± 0.6 mL/min
  Heart Rate: 317 ± 15 beats/min
  Peak Systolic Pressure: 73 ± 1 mmHg
[1]; normal rat hearts
  protective properties in hearts subjected to zero-flow ischaemia in vitro: protective properties of rapid onset
[2]; [4]
  Aortic Flow: 42.3 ± 1.5 mL/min
  Cardiac Output: 54.4 ± 1.7 mL/min
  Coronary Flow: 12.1 ± 0.4 mL/min
  Heart Rate: 225 ± 14 beats/min
  Peak Systolic Pressure: 76 ± 2 mmHg
[2]; diabetic rat hearts
  protective properties in hearts subjected to zero-flow ischaemia in vitro: protective properties of rapid onset
